Experimental data from US20200270309A1, “MALEIMIDE GROUP-MODIFIED ANGIOGENESIS INHIBITOR HM-1 AND USE THEREOF” (NANJING ANJI BIOLOGICAL TECHNOLOGY CO., LTD, priority 2017, published 2020).
Read-outs that look alike come from different tables or passages of the source. Ends that are not written are not given here. Peptide text beside a SMILES is read from it. * marks the point of attachment. Hexanoyl(6-maleimido) = O=C1C=CC(=O)N1CCCCCC(=O)*; Propanoyl(3-maleimido) = O=C1C=CC(=O)N1CCC(=O)*; X26 = O=C1C=CC(=O)N1CCOCCOCCOCCOCCOCCCCC(=O)*; X5 = O=C1C=CC(=O)N1CCOCCOCCOCCOCCOCCOCC(=O)*; X53 = O=C1C=CC(=O)N1CCOCCOCCOCCOCCCCCCC(=O)*; X37 = O=C1C=CC(=O)N1c1ccc(CCCCCC(=O)*)cc1; X34 = O=C1C=CC(=O)N1CCOCCOCCOCCCCCC(=O)*; X33 = O=C1C=CC(=O)N1CCOCCOCCOCCCCC(=O)*; X47 = O=C1C=CC(=O)N1c1ccccc1CCCCC(=O)*; X70 = O=C1C=CC(=O)N1CCOCCOCCOCCCC(=O)*; X31 = O=C1C=CC(=O)N1CCOCCOCCOCC(=O)*; X77 = O=C1C=CC(=O)N1CCCCCCCCCCC(=O)*; X80 = O=C1C=CC(=O)N1c1ccccc1CCC(=O)*; X32 = O=C1C=CC(=O)N1CCOCCOCCC(=O)*; X82 = O=C1C=CC(=O)N1CCCCCCCCC(=O)*; X83 = O=C1C=CC(=O)N1CCCCCCC(=O)*; X45 = O=C1C=CC(=O)N1CCCCC(=O)*

Experiment: Half-lives and pharmacokinetic parameters of polypeptides vs HM-1
Parameters: AUC0-∞: concentration or dose not given beside the values
Conditions: in vivo
[1] = read-out: T1/2β (half-life) (converted)

Compound | AUC(0-inf) | MRT inf | clearance | half-life (T1/2β (half-life)) | AUC(0-inf) (read-out: AUC0-∞) | clearance (read-out: CL (converted)) | MRT inf (read-out: MRT0-∞) | half-life [1] | AUC0-∞ | half-life (read-out: half-life (converted))
C[C@H](NC(=O)CNC(=O)[C@H](CCCNC(=N)N)NC(=O)CCCCCCN1C(=O)C=CC1=O)C(=O)N[C@@H](CC(=O)O)C(=O)N[C@@H](CCCNC(=N)N)C(=O)N[C@@H](C)C(=O)NCC(=O)NCC(=O)NCC(=O)NCC(=O)N[C@@H](CCCNC(=N)N)C(=O)NCC(=O)N[C@@H](CC(=O)O)C(=O)O [X6] (X83-RGADRAGGGGRGD-OH) | 30500 ± 7170 ng·h/mL | 54.6 ± 12.2 h | 0.547 mL/min/kg | 37.86 ± 0.28 h |  |  |  |  |  | 
C[C@H](NC(=O)CNC(=O)[C@H](CCCNC(=N)N)NC(=O)CCOCCOCCN1C(=O)C=CC1=O)C(=O)N[C@@H](CC(=O)O)C(=O)N[C@@H](CCCNC(=N)N)C(=O)N[C@@H](C)C(=O)NCC(=O)NCC(=O)NCC(=O)NCC(=O)N[C@@H](CCCNC(=N)N)C(=O)NCC(=O)N[C@@H](CC(=O)O)C(=O)O [X57] (X32-RGADRAGGGGRGD-OH) | 33800 ± 8180 ng·h/mL | 60.5 ± 10.5 h | 0.493 mL/min/kg | 41.93 ± 0.24 h |  |  |  |  |  | 
C[C@H](NC(=O)CNC(=O)[C@H](CCCNC(=N)N)NC(=O)COCCOCCOCCOCCOCCOCCN1C(=O)C=CC1=O)C(=O)N[C@@H](CC(=O)O)C(=O)N[C@@H](CCCNC(=N)N)C(=O)N[C@@H](C)C(=O)NCC(=O)NCC(=O)NCC(=O)NCC(=O)N[C@@H](CCCNC(=N)N)C(=O)NCC(=O)N[C@@H](CC(=O)O)C(=O)O [X84] (X5-RGADRAGGGGRGD-OH) | 29100 ± 8230 ng·h/mL | 52.1 ± 10.3 h | 0.573 mL/min/kg | 36.09 ± 0.28 h |  |  |  |  |  | 
C[C@H](NC(=O)CNC(=O)[C@H](CCCNC(=N)N)NC(=O)CCCCN1C(=O)C=CC1=O)C(=O)N[C@@H](CC(=O)O)C(=O)N[C@@H](CCCNC(=N)N)C(=O)N[C@@H](C)C(=O)NCC(=O)NCC(=O)NCC(=O)NCC(=O)N[C@@H](CCCNC(=N)N)C(=O)NCC(=O)N[C@@H](CC(=O)O)C(=O)O [X4] (X45-RGADRAGGGGRGD-OH) |  |  |  |  | 30100 ± 7330 ng·h/mL | 0.553 mL/min/kg | 54 ± 10.5 h | 37.44 ± 0.27 h |  | 
C[C@H](NC(=O)CNC(=O)[C@H](CCCNC(=N)N)NC(=O)CCCOCCOCCOCCN1C(=O)C=CC1=O)C(=O)N[C@@H](CC(=O)O)C(=O)N[C@@H](CCCNC(=N)N)C(=O)N[C@@H](C)C(=O)NCC(=O)NCC(=O)NCC(=O)NCC(=O)N[C@@H](CCCNC(=N)N)C(=O)NCC(=O)N[C@@H](CC(=O)O)C(=O)O [X65] (X70-RGADRAGGGGRGD-OH) | 31800 ± 7280 ng·h/mL | 57.1 ± 12.2 h | 0.523 mL/min/kg | 39.53 ± 0.31 h |  |  |  |  |  | 
C[C@H](NC(=O)CNC(=O)[C@H](CCCNC(=N)N)NC(=O)CCCCCN1C(=O)C=CC1=O)C(=O)N[C@@H](CC(=O)O)C(=O)N[C@@H](CCCNC(=N)N)C(=O)N[C@@H](C)C(=O)N[C@@H](CCC(=O)O)C(=O)N[C@@H](C)C(=O)N[C@@H](C)C(=O)N[C@@H](C)C(=O)N[C@@H](CCCCN)C(=O)N[C@@H](CCCNC(=N)N)C(=O)NCC(=O)N[C@@H](CC(=O)O)C(=O)O [P12] ({Hexanoyl(6-maleimido)}-RGADRAEAAAKRGD-OH; C-terminus assumed) |  |  |  |  | 34000 ± 6880 ng·h/mL | 0.49 mL/min/kg | 61 ± 10.1 h | 42.24 ± 0.29 h |  | 
CC[C@H](C)[C@H](NC(=O)[C@H](Cc1c[nH]cn1)NC(=O)[C@H](CCC(N)=O)NC(=O)[C@H](CCCNC(=N)N)NC(=O)CCN1C(=O)C=CC1=O)C(=O)N[C@@H](Cc1ccccc1)C(=O)N1CCC[C@H]1C(=O)N[C@@H](CO)C(=O)N[C@@H](Cc1c[nH]c2ccccc12)C(=O)N[C@@H](Cc1c[nH]c2ccccc12)C(=O)N[C@@H](Cc1ccccc1)C(=O)N[C@@H](Cc1c[nH]c2ccccc12)C(=O)N[C@@H](Cc1ccc(O)cc1)C(=O)N[C@@H](Cc1ccc(O)cc1)C(=O)N1CCC[C@H]1C(=O)N[C@@H](CC(=O)O)C(=O)N[C@@H](CCCNC(=N)N)C(=O)N[C@@H](CC(C)C)C(=O)N[C@@H](CCCCN)C(=O)N[C@@H](CCSC)C(=O)N[C@@H](CCCNC(=N)N)C(=O)NCC(=O)N[C@@H](CC(=O)O)C(=O)O [P3] ({Propanoyl(3-maleimido)}-RQHIFPSWWFWYYPDRLKMRGD-OH; C-terminus assumed) |  |  |  |  |  |  |  | 38.89 ± 0.3 h | 0.0319 ± 0.0076 mg/L/h | 
C[C@H](NC(=O)CNC(=O)[C@H](CCCNC(=N)N)NC(=O)CCCCCc1ccc(N2C(=O)C=CC2=O)cc1)C(=O)N[C@@H](CC(=O)O)C(=O)N[C@@H](CCCNC(=N)N)C(=O)N[C@@H](C)C(=O)NCC(=O)NCC(=O)NCC(=O)NCC(=O)N[C@@H](CCCNC(=N)N)C(=O)NCC(=O)N[C@@H](CC(=O)O)C(=O)O [X41] (X37-RGADRAGGGGRGD-OH) | 26500 ± 7810 ng·h/mL | 47.5 ± 13.9 h | 0.628 mL/min/kg | 32.9 ± 0.36 h |  |  |  |  |  | 
C[C@H](NC(=O)CNC(=O)[C@H](CCCNC(=N)N)NC(=O)CCCCCCCCN1C(=O)C=CC1=O)C(=O)N[C@@H](CC(=O)O)C(=O)N[C@@H](CCCNC(=N)N)C(=O)N[C@@H](C)C(=O)NCC(=O)NCC(=O)NCC(=O)NCC(=O)N[C@@H](CCCNC(=N)N)C(=O)NCC(=O)N[C@@H](CC(=O)O)C(=O)O [X8] (X82-RGADRAGGGGRGD-OH) | 27900 ± 7570 ng·h/mL | 50 ± 12.6 h | 0.597 mL/min/kg | 34.68 ± 0.31 h |  |  |  |  |  | 
C[C@H](NC(=O)CNC(=O)[C@H](CCCNC(=N)N)NC(=O)CCCCOCCOCCOCCOCCOCCN1C(=O)C=CC1=O)C(=O)N[C@@H](CC(=O)O)C(=O)N[C@@H](CCCNC(=N)N)C(=O)N[C@@H](C)C(=O)NCC(=O)NCC(=O)NCC(=O)NCC(=O)N[C@@H](CCCNC(=N)N)C(=O)NCC(=O)N[C@@H](CC(=O)O)C(=O)O [X80] (X26-RGADRAGGGGRGD-OH) | 34500 ± 7330 ng·h/mL | 61.6 ± 11.7 h | 0.483 mL/min/kg | 42.72 ± 0.25 h |  |  |  |  |  | 
C[C@H](NC(=O)CNC(=O)[C@H](CCCNC(=N)N)NC(=O)CCCCc1ccccc1N1C(=O)C=CC1=O)C(=O)N[C@@H](CC(=O)O)C(=O)N[C@@H](CCCNC(=N)N)C(=O)N[C@@H](C)C(=O)NCC(=O)NCC(=O)NCC(=O)NCC(=O)N[C@@H](CCCNC(=N)N)C(=O)NCC(=O)N[C@@H](CC(=O)O)C(=O)O [X16] (X47-RGADRAGGGGRGD-OH) | 31400 ± 8390 ng·h/mL | 56.3 ± 13.6 h | 0.53 mL/min/kg | 39 ± 0.24 h |  |  |  |  |  | 
C[C@H](NC(=O)CNC(=O)[C@H](CCCNC(=N)N)NC(=O)CCCCCCCCCCN1C(=O)C=CC1=O)C(=O)N[C@@H](CC(=O)O)C(=O)N[C@@H](CCCNC(=N)N)C(=O)N[C@@H](C)C(=O)NCC(=O)NCC(=O)NCC(=O)NCC(=O)N[C@@H](CCCNC(=N)N)C(=O)NCC(=O)N[C@@H](CC(=O)O)C(=O)O [X10] (X77-RGADRAGGGGRGD-OH) | 31200 ± 7210 ng·h/mL | 55.8 ± 12.9 h | 0.535 mL/min/kg | 38.64 ± 0.25 h |  |  |  |  |  | 
C[C@H](NC(=O)CNC(=O)[C@H](CCCNC(=N)N)NC(=O)CCCCCOCCOCCOCCN1C(=O)C=CC1=O)C(=O)N[C@@H](CC(=O)O)C(=O)N[C@@H](CCCNC(=N)N)C(=O)N[C@@H](C)C(=O)NCC(=O)NCC(=O)NCC(=O)NCC(=O)N[C@@H](CCCNC(=N)N)C(=O)NCC(=O)N[C@@H](CC(=O)O)C(=O)O [X67] (X34-RGADRAGGGGRGD-OH) | 31600 ± 8030 ng·h/mL | 56.4 ± 11.6 h | 0.528 mL/min/kg | 39.09 ± 0.28 h |  |  |  |  |  | 
C[C@H](NC(=O)CNC(=O)[C@H](CCCNC(=N)N)NC(=O)COCCOCCOCCN1C(=O)C=CC1=O)C(=O)N[C@@H](CC(=O)O)C(=O)N[C@@H](CCCNC(=N)N)C(=O)N[C@@H](C)C(=O)NCC(=O)NCC(=O)NCC(=O)NCC(=O)N[C@@H](CCCNC(=N)N)C(=O)NCC(=O)N[C@@H](CC(=O)O)C(=O)O [X63] (X31-RGADRAGGGGRGD-OH) | 32300 ± 7650 ng·h/mL | 57.7 ± 13.3 h | 0.517 mL/min/kg | 39.97 ± 0.31 h |  |  |  |  |  | 
H-RGADRAGGGGRGD [HM-1, Arg-Gly-Ala-Asp-Arg-Ala-Gly-Gly-Gly-Gly-Arg-Gly-Asp] |  |  |  |  | 32800 ± 8410 ng·h/mL | 24.8 mL/min/kg | 0.068 ± 0.012 h | 0.35 ± 0.14 h |  | 0.34 h
C[C@H](NC(=O)CNC(=O)[C@H](CCCNC(=N)N)NC(=O)CCc1ccccc1N1C(=O)C=CC1=O)C(=O)N[C@@H](CC(=O)O)C(=O)N[C@@H](CCCNC(=N)N)C(=O)N[C@@H](C)C(=O)NCC(=O)NCC(=O)NCC(=O)NCC(=O)N[C@@H](CCCNC(=N)N)C(=O)NCC(=O)N[C@@H](CC(=O)O)C(=O)O [X14] (X80-RGADRAGGGGRGD-OH) | 29100 ± 7660 ng·h/mL | 52 ± 13.5 h | 0.573 mL/min/kg | 36.04 ± 0.32 h |  |  |  |  |  | 
C[C@H](NC(=O)CNC(=O)[C@H](CCCNC(=N)N)NC(=O)CCCCCCOCCOCCOCCOCCN1C(=O)C=CC1=O)C(=O)N[C@@H](CC(=O)O)C(=O)N[C@@H](CCCNC(=N)N)C(=O)N[C@@H](C)C(=O)NCC(=O)NCC(=O)NCC(=O)NCC(=O)N[C@@H](CCCNC(=N)N)C(=O)NCC(=O)N[C@@H](CC(=O)O)C(=O)O [X75] (X53-RGADRAGGGGRGD-OH) | 26700 ± 6960 ng·h/mL | 47.8 ± 13.9 h | 0.623 mL/min/kg | 33.15 ± 0.25 h |  |  |  |  |  | 
C[C@H](NC(=O)CNC(=O)[C@H](CCCNC(=N)N)NC(=O)CCCCOCCOCCOCCN1C(=O)C=CC1=O)C(=O)N[C@@H](CC(=O)O)C(=O)N[C@@H](CCCNC(=N)N)C(=O)N[C@@H](C)C(=O)NCC(=O)NCC(=O)NCC(=O)NCC(=O)N[C@@H](CCCNC(=N)N)C(=O)NCC(=O)N[C@@H](CC(=O)O)C(=O)O [X66] (X33-RGADRAGGGGRGD-OH) | 27700 ± 7510 ng·h/mL | 49.6 ± 9.77 h | 0.602 mL/min/kg | 34.38 ± 0.25 h |  |  |  |  |  | 
